Results taken from article PMC8779134 (2022).
*1 amine or outer side, *2 acyl side, *3 side chain or, on linkers, in order; H or OH if unused. Where a SMILES comes first, the peptide text is derived from it. Bridges are numbered along the chain shown (N, C = ends). [ ]: non-standard residue; d: D form. ξ: configuration not given here. ξTrp(2-yl) = O=C(C(Cc1c([*:3])[nH]c2ccccc12)N[*:1])[*:2]; X2 = O=C(C(CC(O)(CO)CO)N[*:1])[*:2]; X1 = CC(O)(CO)CC(N[*:1])C(=O)[*:2]; ξAsp(3ξ-OH) = NC(C(=O)O)C(O)C(=O)O; Hyp = O=C(O)[CH]1C[CH](O)CN1

Experiments:
[1] = test system: Apt (DNA, aptamer) CATGCTTCCCCAGGGAGATGGAGGTCTTTTTGGTTGTTGGTGGGGGAATCTTTTGGTATTGAGGAACATG; test: AuNP colorimetric assay (A620/A520); settings: Na+ 40 mM (NaCl added after binding), room temperature, 400 nM aptamer
[2] = test system: biotin-labeled Apt (DNA, aptamer) CATGCTTCCCCAGGGAGATGGAGGTCTTTTTGGTTGTTGGTGGGGGAATCTTTTGGTATTGAGGAACATG; test: magnetic bead ELISA, competition (A450); settings: 37 °C, biotinylated complementary strand as competitor
[3] = test system: Apt (DNA, aptamer) CATGCTTCCCCAGGGAGATGGAGGTCTTTTTGGTTGTTGGTGGGGGAATCTTTTGGTATTGAGGAACATG; test: ITC; settings: ultrapure water, 25 °C; 500 μM aptamer titrated into 41.6 μM α-amanitin
[4] = test system: Apt-2 (DNA, aptamer) CCAGGGAGATGGAGGTCTTTTTGGTTGTTGGTGGGGGAATCTTTTGGTATTGAGGAACATG; test: ITC; settings: ultrapure water, 25 °C; 500 μM aptamer titrated into 41.6 μM α-amanitin
[5] = test system: Apt-8 (DNA, aptamer) CATGCTTCCCCAGGGAGATGGAGGTCTTTTTGGTTGTTGGTGGGGGAATCTTTTGGTA; test: ITC; settings: ultrapure water, 25 °C; 500 μM aptamer titrated into 41.6 μM α-amanitin
[6] = test system: Apt-10 (DNA, aptamer) CCCCAGGGAGATGGAGGTCTTTTTGGTTGTTGGTGGGGGAATCTTTTGGTATTGAGGAA; test: ITC; settings: ultrapure water, 25 °C; 500 μM aptamer into 41.6 μM α-amanitin; printed ΔG positive
[7] = test system: Apt-11 (DNA, aptamer) CTTCCCCAGGGAGATGGAGGTCTTTTTGGTTGTTGGTGGGGGAAT; test: ITC; settings: ultrapure water, 25 °C; 500 μM aptamer into 41.6 μM α-amanitin; fit unphysical (N, ΔH)
[8] = test system: Apt-12 (DNA, aptamer) GGGAGATGGAGGTCTT; test: ITC; settings: ultrapure water, 25 °C; 500 μM aptamer titrated into 41.6 μM α-amanitin
[9] = test system: Apt (DNA, aptamer) CATGCTTCCCCAGGGAGATGGAGGTCTTTTTGGTTGTTGGTGGGGGAATCTTTTGGTATTGAGGAACATG; test: AuNP colorimetric assay (A520); settings: Na+ 40 mM (NaCl added after binding); room temperature; aptamer 0-1600 nM titrated into 1 μg/mL α-amanitin; apparent; table unit misprinted Nm
[10] = test system: Apt-2 (DNA, aptamer) CCAGGGAGATGGAGGTCTTTTTGGTTGTTGGTGGGGGAATCTTTTGGTATTGAGGAACATG; test: AuNP colorimetric assay (A520); settings: Na+ 40 mM (NaCl added after binding); room temperature; aptamer 0-1600 nM titrated into 1 μg/mL α-amanitin; apparent; table unit misprinted Nm
[11] = test system: Apt-8 (DNA, aptamer) CATGCTTCCCCAGGGAGATGGAGGTCTTTTTGGTTGTTGGTGGGGGAATCTTTTGGTA; test: AuNP colorimetric assay (A520); settings: Na+ 40 mM (NaCl added after binding); room temperature; aptamer 0-1600 nM titrated into 1 μg/mL α-amanitin; apparent; table unit misprinted Nm
[12] = test system: Apt-10 (DNA, aptamer) CCCCAGGGAGATGGAGGTCTTTTTGGTTGTTGGTGGGGGAATCTTTTGGTATTGAGGAA; test: AuNP colorimetric assay (A520); settings: Na+ 40 mM (NaCl added after binding); room temperature; aptamer 0-1600 nM titrated into 1 μg/mL α-amanitin; apparent; table unit misprinted Nm
[13] = test system: Apt-11 (DNA, aptamer) CTTCCCCAGGGAGATGGAGGTCTTTTTGGTTGTTGGTGGGGGAAT; test: AuNP colorimetric assay (A520); settings: Na+ 40 mM (NaCl added after binding); room temperature; aptamer 0-1600 nM titrated into 1 μg/mL α-amanitin; apparent; table unit misprinted Nm
[14] = test system: Apt-12 (DNA, aptamer) GGGAGATGGAGGTCTT; test: AuNP colorimetric assay (A520); settings: Na+ 40 mM (NaCl added after binding); room temperature; 1 μg/mL α-amanitin; apparent; text b16 prints 132.1 ± 32.99 nM instead
[15] = highest concentration 500 ng/mL

**Q.** How did the binding ([1]; highest concentration 1 μg/mL) turn out when `CCCC[C@@H](C)[C@@H](OC(=O)C[C@@H](CC(=O)O)C(=O)O)[C@H](C[C@@H](C)C[C@H](O)CCCC[C@@H](O)C[C@H](O)[C@H](C)N)OC(=O)C[C@@H](CC(=O)O)C(=O)O` was run?
**A.** The binding was “no”.

**Q.** `CC[C@H](C)[C@@H]1NC(=O)CNC(=O)[C@@H]2Cc3c([nH]c4cc(O)ccc34)[S@](=O)C[C@H](NC(=O)CNC1=O)C(=O)N[C@@H](CC(=O)O)C(=O)N1C[C@H](O)C[C@H]1C(=O)N[C@@H]([C@@H](C)[C@@H](O)CO)C(=O)N2` was tested. Which binding ([1]; 1 μg/mL β-amanitin) did it give?
**A.** Its binding is “yes”.

**Q.** And the binding ([2]; 500 ng/mL)?
**A.** The binding was “yes”.

**Q.** With `CC[C@H](C)[C@@H]1NC(=O)CNC(=O)[C@@H]2Cc3c([nH]c4cc(O)ccc34)[S@](=O)C[C@H](NC(=O)CNC1=O)C(=O)N[C@@H](CC(N)=O)C(=O)N1C[C@H](O)C[C@H]1C(=O)N[C@@H]([C@@H](C)[C@@H](O)CO)C(=O)N2` as the compound, how does the Kd [3] read?
**A.** Its Kd is 3.1 µM.

**Q.** What about the Kd [4] of the same compound?
**A.** Its Kd is 46.9 µM.

**Q.** What about the Kd [5] of the same compound?
**A.** Its Kd is 11.9 µM.

**Q.** What about the Kd [6] of the same compound?
**A.** Its Kd is 68 µM.

**Q.** And the Kd [7]?
**A.** The Kd was 54.6 µM.

**Q.** What about the Kd [8] of the same compound?
**A.** The Kd was 84.7 µM.

**Q.** What about the Kd [9] of the same compound?
**A.** The Kd was 33.6 ± 3.928 nM.

**Q.** And the Kd [10]?
**A.** Its Kd is 37.9 ± 6.053 nM.

**Q.** And the Kd [11]?
**A.** Its Kd is 130.9 ± 31.1 nM.

**Q.** What about the Kd [12] of the same compound?
**A.** The Kd was 108.7 ± 18.23 nM.

**Q.** And the Kd [13]?
**A.** Its Kd is 184.4 ± 37.08 nM.

**Q.** And the Kd [14]?
**A.** Its Kd is 185.2 ± 60.87 nM.

**Q.** And the binding ([2]; 0.1-6 μg/mL)?
**A.** Its binding is “yes”.

**Q.** With `CC[C@H](C)[C@@H]1NC(=O)CNC(=O)[C@@H]2Cc3c([nH]c4cc(O)ccc34)[S@](=O)C[C@H](NC(=O)CNC1=O)C(=O)N[C@@H](CC(N)=O)C(=O)N1C[C@H](O)C[C@H]1C(=O)N[C@@H]([C@@H](C)[C@H](C)O)C(=O)N2` as the compound, how does the binding [2, 15] read?
**A.** The binding was “no”.

**Q.** For `C[C@@H]1Cc2c(Cl)cc(C(=O)N[C@@H](Cc3ccccc3)C(=O)O)c(O)c2C(=O)O1`, which binding ([1]; highest concentration 1 μg/mL) is on record?
**A.** Its binding is “no”.

**Q.** With `CC1NC(=O)C2CC(O)CN2C(=O)C2CSc3[nH]c4ccccc4c3CC(NC1=O)C(=O)NC(CC(C)(O)CO)C(=O)NC(C(C)C)C(=O)NC(C(O)C(=O)O)C(=O)N2` (centres unmarked) (cyclo([ξAsp(3ξ-OH)]C[Hyp]A[ξTrp(2-yl)][X1]V); thioether 2-5; configuration not given here) as the compound, how does the binding [2, 15] read?
**A.** The binding was “no”.

**Q.** For `CC1NC(=O)C2CC(O)CN2C(=O)C2CSc3[nH]c4ccccc4c3CC(NC1=O)C(=O)NC(CC(O)(CO)CO)C(=O)NC(C(C)C)C(=O)NC(C(O)C(=O)O)C(=O)N2` (centres unmarked) (cyclo([ξAsp(3ξ-OH)]C[Hyp]A[ξTrp(2-yl)][X2]V); thioether 2-5; configuration not given here), which binding [2, 15] is on record?
**A.** The binding was “no”.
